We go through 2 compounds from patent US20240101562A1, “NOVEL COMPOUND, AND PHARMACEUTICAL COMPOSITION FOR PREVENTING OR TREATING RESISTANT CANCER, COMPRISING SAME” (HOLOSMEDIC, priority 2020, published 2024).

Holding throughout (format): cell-based
Experiment [1] has as its system SKOV3 cell line (epithelial ovarian cancer). The experiment can be described thus: WST-1 assay, co-treatment with paclitaxel, SKOV3. Particulars: paclitaxel alone, 2 nM or 0.05 μM, SKOV3, three days. The protocol:
(§1) According to the results of WST-1 assays, which measure cell proliferation or survival, a reduction in metabolism in SKOV3 and SKOV3-TR was induced by paclitaxel treatment. The WST-1 assays were performed after SKOV3 and SKOV3-TR were co-treated with 79 types of compounds and paclitaxel.
(§2) Specifically, the two cancer cell lines grown in 96-well plates were treated with the 79 types of compounds at a low concentration (0.5 μM) or a high concentration (2 μM) and paclitaxel, and the paclitaxel concentration used herein was 3 μM or 4 μM for the SKOV3-TR cell line, and 2 nM or 0.05 μM for the SKOV3 cell line. For cytotoxicity analysis, three days after co-treatment of DMSO (paclitaxel, compound solvent), paclitaxel and the 79 types of compounds, the WST-1 assays were performed.
(In general: Formazan colour is commonly taken as a measure of viable cells.)

Experiment [2] has as its system SKOV3-TR cell line (paclitaxel-resistant, derived from SKOV3). Put plainly: WST-1 assay, co-treatment with paclitaxel, SKOV3-TR. Particulars: paclitaxel alone, 3 μM or 4 μM, three days. The protocol:
as §1, §2

In experiment [3] the test system is SKOV3 cell line (epithelial ovarian cancer). Put plainly: WST-1 assay, co-treatment with docetaxel, SKOV3. Particulars: docetaxel alone, 0.75 nM, SKOV3, three days. The protocol: (§3) According to the results of WST-1 assays, which measure cell proliferation or survival, a reduction in metabolism in SKOV3 and SKOV3-TR was induced by docetaxel treatment.
(§4) After SKOV3 and SKOV3-TR were co-treated with 79 types of compounds and docetaxel, the WST-1 assays were performed.
(§5) Specifically, the two cancer cell lines grown in 96-well plates were treated with the 79 types of compounds at a low concentration (0.5 μM) or a high concentration (2 μM) and docetaxel, and the docetaxel concentration used herein were 1 μM for the SKOV3-TR cell line and 0.75 nM for the SKOV3 cell line. For cytotoxicity analysis, three days after the co-treatment of DMSO (docetaxel, compound solvent), docetaxel and the 79 types of compounds, the WST-1 assays were performed.

Experiment [4] has as its system SKOV3-TR cell line (paclitaxel-resistant, derived from SKOV3). Put plainly: WST-1 assay, co-treatment with docetaxel, SKOV3-TR. To be noted: docetaxel alone, 1 μM, three days. The protocol:
as §3, §4, §5

Regarding `CC(=O)O[C@H]1C(=O)[C@@]2(C)[C@H]([C@H](OC(=O)c3ccccc3)[C@]3(O)C[C@H](OC(=O)[C@H](O)[C@@H](NC(=O)c4ccccc4)c4ccccc4)C(C)=C1C3(C)C)[C@]1(OC(C)=O)CO[C@@H]1C[C@@H]2O` [paclitaxel], the “absorbance at 450 nm compared to the DMSO-treated group” value in experiment [1] and in experiment [2] was “reduced” in each case.

Take `CC(=O)O[C@@]12CO[C@@H]1C[C@H](O)[C@@]1(C)C(=O)[C@H](O)C3=C(C)[C@@H](OC(=O)[C@H](O)[C@@H](NC(=O)OC(C)(C)C)c4ccccc4)C[C@@](O)([C@@H](OC(=O)c4ccccc4)[C@H]21)C3(C)C` [docetaxel]: the “absorbance at 450 nm compared to the DMSO-treated group” value in experiment [3] and in experiment [4] was “reduced” throughout.
